From US10149836B2, “Isoxazole treatments for frontotemporal dementia” (The Board of Regents of the University of Texas System, priority 2014, dated 2018)

How the values were obtained:
progranulin promoter = experiment: Luciferase reporter assay in Neuro2A #48 cells (human GRN start codon fused to firefly luciferase); format: cell-based, mouse; details: for Luciferase activity over DMSO control: Neuro2A #48 cells, 24 hrs after compound addition, increasing concentrations
Method: Plasmids and Cell Lines. The firefly luciferase coding sequence was fused by bacterial recombination to the authentic human GRN start codon in exon 2 (NM_002087.2) on a bacterial artificial chromosome (BACPAC RP11-812N09), and stably transfected Neuro-2a cells were derived.
Library Screening and Luciferase Reporter Assays. Neuro-2a cells were assayed in 384-well plates (3000 cells/well). 6 hrs after cell plating, 1200 Prestwick Chemical Library® compounds in DMSO, including internal controls, were dispensed using a BioMek FX system to final concentrations of 2.5 μM compound and 1% DMSO (unless indicated otherwise). Sodium butyrate (9 mM) was used as a positive control on each plate for initial screening. Luciferase activity was measured 24 hr after compound addition using Bright-Glo™ reagent (20 μl/well; Promega). Each well was normalized to the average luminescence from DMSO-treated wells on the same plate.
Technical details of HTS screen. Cell type used: Neuro-2a #48 cell line was cultured in DMEM (High glucose)/10%FBS/Pen-Strep/Zeocin (200 μg/mL) and plated in same media without Zeocin. All media is sterile filtered before use. The firefly luciferase coding sequence was fused by bacterial recombination to the authentic human GRN start codon in exon 2 (NM_002087.2) on a bacterial artificial chromosome (BACPAC RP11-812N09), and stably transfected Neuro-2a cells were derived (Cenik et al., 2011). Cells are put into single cell suspension and strained with 70 μm cell strainers before counting. The concentration of cells is adjusted to 150,000 cells/ml.
384 well plates were used for the assay: 50 μL of the cell suspension are added to each well for a final cell number per well of 7,500. Plates are spun down after plating and incubated at 37° C. under 5% CO2. Compound addition takes place 4 hours after plating. Test compounds are in columns 3-22. The vehicle control wells are in columns 2 and 23. The positive control, SAHA (3 μM), is plated in column 1 An untreated control (no DMSO) is in column 24. The plates are assayed for reporter activity 24 hrs after compound addition. All media is spun out of the plates and 20 μL of bright glo is added to each well and placed on shaker for 3-5 minutes. After shaking, plates are read and check from increases in activation over DMSO. Vehicle (DMSO) was used for baseline because it causes a slight activation of luciferase construct. […] All compounds were added from DMSO stocks and added at 0.5 μL per well (1% DMSO). All plates are read on an EnVision multilabel plate reader in luminescence mode. The data is then parsed into GeneData Screener v11 and quality controlled visually. Z′ values are calculated using the DMSO and SAHA controls. Plates that have a Z′ value less than 0.45 are further scrutinized. If the latter show systematic effects or if known errors occurred in these plates, they are repeated in a separate experiment. Data are then normalized and analyzed as previously described (Kim et al., 2013).

progranulin (PGRN) = experiment: Progranulin (PGRN) protein expression in Neuro2a whole cell lysates by immunoblotting; format: cell-based, mouse; details: Neuro2a cells, 48 hours; for PGRN levels compared to DMSO: highest concentrations, N=4; for progranulin protein levels by immunoblotting: increasing doses, whole cell lysates
Method: FIG. 6. Protein analysis using immuoblotting. Neuro2a cells were treated with in increasing doses for 48 hours and whole cell lysates were analyzed for progranulin (PGRN) protein expression using immunobloting. N=4.
FIG. 7. Graphical analysis of protein quantification using immunoblotting. Whole cell lysates were analyzed for progranulin (PGRN) protein expression using immunoblotting and were graphically plotted to show changes in band intensity. PGRN levels doubled compared to DMSO at the highest concentrations. N=4.
Immunoblotting and Quantification. Cells were lysed in radioimmune precipitation assay buffer (50 mM Tris-HCl (pH 7.4), 150 mM NaCl, 1 mM EDTA, 1% Triton X-100, 1% sodium deoxycholate, 0.1% SDS, and Roche Complete protease inhibitor mixture) and cleared by centrifugation at 20,000×g for 10 min. 0.5-ml cell culture supernatants containing 1% FBS were concentrated by centrifugation at 14,000×g for 50 min in Millipore Amicon Ultra devices (3-kDa cutoff). 15-20 μg of total protein was separated by SDS-PAGE and transferred to nitrocellulose membranes. Membranes were blocked in 5% milk for 1 hr and probed overnight with primary antibodies at 4° C. Mouse progranulin was detected with linker-3 anti-progranulin antibody at 1:5000 dilution, β-actin with anti-β-actin antibody (Sigma A2228) at 1:5000 dilution, human progranulin with anti-PC cell-derived growth factor antibody (Invitrogen) at 1:1000 dilution, and GAPDH with anti-GAPDH antibody (Sigma) at 1:10,000 dilution. Bound IgG was detected by ECL. For quantitative immunoblotting, secondary antibodies labeled with IRDye® infrared dyes and an Odyssey® infrared imager (LI-COR Biosciences) were used following the manufacturer's instructions.

Progranulin MEF cells = experiment: Lysosome rescue (lysotracker) in Progranulin MEF cells; format: cell-based, mouse; details: one concentration, one trial
Method: FIGS. 8A-8F. Dose Tested for Lysosome Rescue. Progranulin MEF cells were treated with 1 concentration each of C15 and C19 and levels of lysotracker were analyzed to look for reduction of lysosome levels back to wild type levels. The stained area per cell is measured for compound C15 (FIG. 8A) and C19 (FIG. 8B), area intensity for compound C15 (FIG. 8C) and C19 (FIG. 8D), and total number of lysosomes for compound C15 (FIG. 8E) and C19 (FIG. 8F).
Progranulin MEF cells were treated with one aliquot each of C15 and C19 and levels of lysotracker were analyzed to look for reduction of lysosome levels back to wild type levels.

Progranulin [1] = experiment: Progranulin protein expression in primary rat neurons (immunoblot, densitometric quantitation); format: cell-based; details: 24 hours, two concentrations
Method: FIGS. 1A-B. Neuro2A #48 cells show a marked increase in Progranulin levels due to Isoxazole treatment after 24 hours. (FIG. 1A) Cells were treated with Isoxazole in increasing concentrations ranging from 10 nM to 25 μM. […] (FIG. 1B) Primary rat neurons were treated for 24 hours with DMSO and two concentrations of Isoxazole to visualize the increase in Progranulin protein expression in the relevant in vivo cell type. […] Lower band: actin control. Bands at ˜75 kDa: Progranulin monomer. HMW bands: Progranulin multimers. Densitometric quantitation is shown on the right.
Immunoblotting and Quantification. […] Mouse progranulin was detected with linker-3 anti-progranulin antibody at 1:5000 dilution, β-actin with anti-β-actin antibody (Sigma A2228) at 1:5000 dilution, human progranulin with anti-PC cell-derived growth factor antibody (Invitrogen) at 1:1000 dilution, and GAPDH with anti-GAPDH antibody (Sigma) at 1:10,000 dilution. Bound IgG was detected by ECL. For quantitative immunoblotting, secondary antibodies labeled with IRDye® infrared dyes and an Odyssey® infrared imager (LI-COR Biosciences) were used following the manufacturer's instructions.

progranulin [2] = experiment: RT PCR of progranulin mRNA and pre-mRNA in Neuro2A cells; format: cell-based, mouse; details: 48 hours, increasing concentrations
Method: FIG. 2. Neuro2A cells were treated for 48 hours with increasing concentrations of Isoxazole. RT PCR was conducted to measure increases in progranulin mRNA and pre-mRNA (hnRNA before splicing).
RNA Extraction and Quantitative PCR. Cells in 6-well plates were lysed in 500 μl of TRIzol® reagent/well. cDNA was reverse-transcribed with MultiScribe™ (Applied Biosystems). For some experiments, the Quick-RNA MiniPrep system (Zymo Research, Irvine, Calif.) was used to isolate total RNA. Primer sequences were as follows:
Quantitative PCRs (qPCRs; 10 μl) contained 20 ng of cDNA, 150 nM primer, and 5 μl of Fast SYBR Green PCR Master Mix (Applied Biosystems) and were performed in triplicate on an Applied Biosystems PRISM 7500 Fast sequence detection system. Relative mRNA levels were calculated using U36B or cyclophilin Q primers as internal controls.

| Structure (SMILES) | Luciferase activity over DMSO control (progranulin promoter) | PGRN levels compared to DMSO (progranulin (PGRN)) | progranulin protein levels by immunoblotting (progranulin (PGRN)) | further results |
| --- | --- | --- | --- | --- |
| COc1ccccc1C(=O)NNC1C(=O)Nc2ccccc21 (stereo not shown) [Compound C15] | dose dependent increase in luciferase activity | doubled | increased progranulin protein levels |  |
| CC(C)(C)c1cc2c(c(C(C)(C)C)c1)OC(c1cccc([N+](=O)[O-])c1O)N2 (stereo not shown) [Compound C19] | only a small change | doubled | increased progranulin protein levels | lysosome levels (lysotracker) (Progranulin MEF cells): marked decrease in lysosome levels |
| c1cnoc1 [Isoxazole] | significant increase over control |  |  | Progranulin protein levels vs DMSO control (Progranulin [1]): significant increase over the DMSO control; progranulin mRNA (progranulin [2]): significant increases in a dose dependent manner; progranulin pre-mRNA (hnRNA before splicing) (progranulin [2]): significant increases in a dose dependent manner |
| O=C(CCCCCCC(=O)Nc1ccccc1)NO [SAHA, reference compound] |  |  |  | Activation of luciferase reporter relative to base line (DMSO) (progranulin promoter; Neuro-2a #48 cells, SAHA 3 μM positive control, 24 hrs): 4-5 times base line |
| CCCCCCCCCCCCC/C=C/[C@@H](O)[C@@H](N)COP(=O)([O-])OCC[N+](C)(C)C [sphingosinephosphorylcholine, reference compound] | increasing levels of luciferase activity over DMSO control |  |  |  |
